Common to all, as to assay: Bacterial susceptibility testing, MIC by broth microdilution (CLSI)
Format in all cases: cell-based

The subject of one assay is E. coli ATCC25922. As to conditions: Escherichia coli, 35° C., 18-24 h, read-out: MIC (μg/mL) E. coli ATCC25922. On the procedure: (§1) Minimal inhibitory concentrations (MIC) were determined by the broth microdilution method in accordance with the Clinical and Laboratory Standards Institute (CLSI) guidelines. In brief, organism suspensions were adjusted to a final inoculum between 3×10^5 and 7×10^5 colony-forming units (CFU)/mL. Drug dilutions and inocula were made in sterile, cation adjusted Mueller-Hinton Broth (Beckton Dickinson). In wells, an inoculum volume of 100 μL was mixed to 2 μL of DMSO with 2-fold serial dilutions of drug. All inoculated microdilution trays were incubated in ambient air at 35° C. for 18-24 h. Following incubation, the lowest concentration of the drug that prevented visible growth (OD600 nm<0.05) was recorded as the MIC. Performance of the assay was monitored by the use of laboratory quality-control strains and compounds with defined MIC spectrum, in accordance with CLSI guidelines

In a further assay the test system is K. pneumoniae ATCC13883. As to conditions: Klebsiella pneumoniae, 35° C., 18-24 h, read-out: MIC (μg/mL) K. pneumoniae ATCC13883. On the procedure:
as §1

A further assay concerns P. aeruginosa 209 PAO1. As to conditions: Pseudomonas aeruginosa, 35° C., 18-24 h, read-out: MIC (μg/mL) P. aeruginosa 209 PAO1. On the procedure: as §1
Another assay deals with P. aeruginosa ATCC27835. As to conditions: Pseudomonas aeruginosa, 35° C., 18-24 h, read-out: MIC (μg/mL) P. aeruginosa ATCC27835. The procedure:
as §1

In brackets after ≈: the same amount, converted by molar mass.

With `C[C@H](O)c1nccn1[C@@H](C#Cc1ccc(-c2ccc([C@H]3C[C@H](NS(C)(=O)=O)C3)cc2)cc1)CO` [Compound 36, N-((1S,3r)-3-(4′-((S)-4-hydroxy-3-(2-((S)-1-hydroxyethyl)-1H-imidazol-1-yl)but-1-yn-1-yl)-[1,1′-biphenyl]-4-yl)cyclobutyl)methanesulfonamide], the MIC in the assay on E. coli ATCC25922 was 0.25 µg/mL (≈ 0.521 µM); in the assay on K. pneumoniae ATCC13883 it was 1 µg/mL (≈ 2.09 µM); with P. aeruginosa 209 PAO1 it was 1 µg/mL (≈ 2.09 µM); in the assay on P. aeruginosa ATCC27835, 2 µg/mL (≈ 4.17 µM).

For the molecule `CC(CNC1CC(c2ccc(-c3ccc(C#C[C@@H](CO)n4ccnc4[C@H](C)O)cc3)cc2)C1)C(=O)O` (stereo partly drawn) [Compound 37, 3-((3-(4′-((S)-4-hydroxy-3-(2-((S)-1-hydroxyethyl)-1H-imidazol-1-yl)but-1-yn-1-yl)-[1,1′-biphenyl]-4-yl)cyclobutyl)amino)-2-methylpropanoic acid], the MIC with E. coli ATCC25922 is 2 µg/mL (≈ 4.1 µM); with K. pneumoniae ATCC13883 it was 8 µg/mL (≈ 16.4 µM); in the assay on P. aeruginosa 209 PAO1, 4 µg/mL (≈ 8.2 µM); in the assay on P. aeruginosa ATCC27835 it was 4 µg/mL (≈ 8.2 µM).

Consider `C[C@H](O)c1nccn1[C@@H](C#Cc1ccc(-c2ccc(C3CC(N[C@H]4COC[C@@H]4O)C3)cc2)cc1)CO` (stereo partly drawn) [Compound 38, (3R,4S)-4-((3-(4′-((S)-4-hydroxy-3-(2-((S)-1-hydroxyethyl)-1H-imidazol-1-yl)but-1-yn-1-yl)-[1,1′-biphenyl]-4-yl)cyclobutyl)amino)tetrahydrofuran-3-ol], for which the MIC in the assay with E. coli ATCC25922 was 2 µg/mL (≈ 4.1 µM); in the assay with K. pneumoniae ATCC13883, 8 µg/mL (≈ 16.4 µM); with P. aeruginosa 209 PAO1, 4 µg/mL (≈ 8.2 µM); with P. aeruginosa ATCC27835 it was 4 µg/mL (≈ 8.2 µM).

With `C[C@H](O)c1nccn1[C@@H](C#Cc1ccc(-c2ccc(C3CC(NC4C(O)OC(CO)C(O)C4O)C3)cc2)cc1)CO` (stereo partly drawn) [Compound 39, 3-((3-(4′-((S)-4-hydroxy-3-(2-((S)-1-hydroxyethyl)-1H-imidazol-1-yl)but-1-yn-1-yl)-[1,1′-biphenyl]-4-yl)cyclobutyl)amino)-6-(hydroxymethyl)tetrahydro-2H-pyran-2,4,5-triol], the MIC with E. coli ATCC25922 is 8 µg/mL (≈ 14.2 µM); in the assay on K. pneumoniae ATCC13883, 32 µg/mL (≈ 56.8 µM); with P. aeruginosa 209 PAO1, 4 µg/mL (≈ 7.1 µM); in the assay with P. aeruginosa ATCC27835, 8 µg/mL (≈ 14.2 µM).

On to `C[C@H](O)c1nccn1[C@@H](C#Cc1ccc(-c2ccc(C3CC(NC(=O)CC#N)C3)cc2)cc1)CO` (stereo partly drawn) [Compound 40, 2-cyano-N-(3-(4′-((S)-4-hydroxy-3-(2-((S)-1-hydroxyethyl)-1H-imidazol-1-yl)but-1-yn-1-yl)-[1,1′-biphenyl]-4-yl)cyclobutyl)acetamide], for which the MIC with E. coli ATCC25922 worked out at 0.5 µg/mL (≈ 1.07 µM); with K. pneumoniae ATCC13883, 2 µg/mL (≈ 4.27 µM); in the assay with P. aeruginosa 209 PAO1, 4 µg/mL (≈ 8.54 µM); with P. aeruginosa ATCC27835 it was 2 µg/mL (≈ 4.27 µM).

`C[C@H](O)c1nccn1[C@@H](C#Cc1ccc(-c2ccc(C[C@@H]3COC[C@H]3O)cc2)cc1)CO` [Compound 41, (3S,4R)-4-((4′-((S)-4-hydroxy-3-(2-((S)-1-hydroxyethyl)-1H-imidazol-1-yl)but-1-yn-1-yl)-[1,1′-biphenyl]-4-yl)methyl)tetrahydrofuran-3-ol]: the MIC in the assay on E. coli ATCC25922 stood at 0.5 µg/mL (≈ 1.16 µM); with K. pneumoniae ATCC13883, 2 µg/mL (≈ 4.62 µM); in the assay on P. aeruginosa 209 PAO1, 4 µg/mL (≈ 9.25 µM); in the assay on P. aeruginosa ATCC27835, 2 µg/mL (≈ 4.62 µM).

As for `C[C@H](O)c1nccn1CC#Cc1ccc(-c2ccc(O[C@@H]3COC[C@H]3O)cc2)cc1` [Compound 42, (3R,4R)-4-((4′-(3-(2-((S)-1-hydroxyethyl)-1H-imidazol-1-yl)prop-1-yn-1-yl)-[1,1′-biphenyl]-4-yl)oxy)tetrahydrofuran-3-ol], the MIC with E. coli ATCC25922 is 0.5 µg/mL (≈ 1.24 µM); in the assay on K. pneumoniae ATCC13883 it was 0.5 µg/mL (≈ 1.24 µM); in the assay on P. aeruginosa 209 PAO1, 2 µg/mL (≈ 4.94 µM); in the assay with P. aeruginosa ATCC27835 it was 2 µg/mL (≈ 4.94 µM).

For `C[C@H](O)c1nccn1[C@@H](C#Cc1ccc(-c2ccc(O[C@@H]3COC[C@H]3O)cc2)cc1)CCO` [Compound 43, (3R,4R)-4-((4′-((R)-5-hydroxy-3-(2-((S)-1-hydroxyethyl)-1H-imidazol-1-yl)pent-1-yn-1-yl)-[1,1′-biphenyl]-4-yl)oxy)tetrahydrofuran-3-ol], the MIC worked out at 1 µg/mL (≈ 2.23 µM) in the assay on E. coli ATCC25922, 2 µg/mL (≈ 4.46 µM) in the assay on K. pneumoniae ATCC13883, 4 µg/mL (≈ 8.92 µM) in the assay on P. aeruginosa 209 PAO1 and 2 µg/mL (≈ 4.46 µM) in the assay with P. aeruginosa ATCC27835.

Values taken from patent publication US20240166609A1, “ANTIBACTERIAL COMPOUNDS” (BLACKSMITH MEDICINES, INC., priority 2021, published 2024).
